Drawing on PMC12041661, “Dual MNK/VEGFR2 Inhibitor JDB153 Enhances Immunotherapeutic Efficiency and Chemosensitivity in Lung Cancer” (MedComm, 2025), this text covers IC50 for one compound.

For assay [1], the target named is T1, VEGFR2 (Homo sapiens, UniProt P35968).
T1 construct: gene KDR
Description: radiometric kinase assay. The format is biochemical.

In assay [2] the target is T2, MNK1 (Homo sapiens, UniProt Q9BUB5).
T2 construct: gene MKNK1
Description: radiometric kinase assay. The format is biochemical.

In general, IC50 refers to the concentration that inhibits the measured activity by half. A low value points to inhibition by little substance.

T1 sequence (P35968 20-1356): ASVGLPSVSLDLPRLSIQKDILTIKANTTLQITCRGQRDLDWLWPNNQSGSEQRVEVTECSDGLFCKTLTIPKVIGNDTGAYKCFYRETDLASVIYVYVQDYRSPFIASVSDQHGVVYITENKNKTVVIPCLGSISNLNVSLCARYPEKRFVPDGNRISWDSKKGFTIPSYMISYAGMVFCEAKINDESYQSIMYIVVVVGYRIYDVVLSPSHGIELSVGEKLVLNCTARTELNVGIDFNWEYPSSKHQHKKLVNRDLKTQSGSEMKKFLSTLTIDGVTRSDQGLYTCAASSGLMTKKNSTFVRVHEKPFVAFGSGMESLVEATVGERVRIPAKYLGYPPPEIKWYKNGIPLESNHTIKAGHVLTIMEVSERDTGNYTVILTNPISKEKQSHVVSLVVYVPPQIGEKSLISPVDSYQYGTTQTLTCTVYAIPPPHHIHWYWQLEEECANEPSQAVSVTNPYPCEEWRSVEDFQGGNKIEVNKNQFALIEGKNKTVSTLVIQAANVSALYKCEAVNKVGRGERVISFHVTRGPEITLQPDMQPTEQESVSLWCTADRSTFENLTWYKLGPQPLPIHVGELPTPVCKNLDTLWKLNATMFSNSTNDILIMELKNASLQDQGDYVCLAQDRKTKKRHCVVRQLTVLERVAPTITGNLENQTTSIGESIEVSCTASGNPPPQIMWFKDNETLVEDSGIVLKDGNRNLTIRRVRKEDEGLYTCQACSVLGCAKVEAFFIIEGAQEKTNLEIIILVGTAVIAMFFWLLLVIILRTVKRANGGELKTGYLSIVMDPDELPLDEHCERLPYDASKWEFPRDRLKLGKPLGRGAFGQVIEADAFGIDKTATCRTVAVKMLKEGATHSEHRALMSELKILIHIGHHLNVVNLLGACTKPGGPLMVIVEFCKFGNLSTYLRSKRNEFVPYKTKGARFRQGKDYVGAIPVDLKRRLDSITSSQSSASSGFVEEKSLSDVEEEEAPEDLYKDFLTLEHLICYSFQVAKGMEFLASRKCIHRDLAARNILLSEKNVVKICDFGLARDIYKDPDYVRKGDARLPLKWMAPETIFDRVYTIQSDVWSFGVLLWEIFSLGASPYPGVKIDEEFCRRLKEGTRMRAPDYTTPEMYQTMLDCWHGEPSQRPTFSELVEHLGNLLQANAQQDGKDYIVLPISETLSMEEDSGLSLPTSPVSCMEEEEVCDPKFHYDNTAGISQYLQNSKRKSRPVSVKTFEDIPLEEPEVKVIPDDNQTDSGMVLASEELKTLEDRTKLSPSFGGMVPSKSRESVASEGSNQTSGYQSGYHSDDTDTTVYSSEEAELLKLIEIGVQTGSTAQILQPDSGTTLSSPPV
T2 sequence (Q9BUB5 whole entry): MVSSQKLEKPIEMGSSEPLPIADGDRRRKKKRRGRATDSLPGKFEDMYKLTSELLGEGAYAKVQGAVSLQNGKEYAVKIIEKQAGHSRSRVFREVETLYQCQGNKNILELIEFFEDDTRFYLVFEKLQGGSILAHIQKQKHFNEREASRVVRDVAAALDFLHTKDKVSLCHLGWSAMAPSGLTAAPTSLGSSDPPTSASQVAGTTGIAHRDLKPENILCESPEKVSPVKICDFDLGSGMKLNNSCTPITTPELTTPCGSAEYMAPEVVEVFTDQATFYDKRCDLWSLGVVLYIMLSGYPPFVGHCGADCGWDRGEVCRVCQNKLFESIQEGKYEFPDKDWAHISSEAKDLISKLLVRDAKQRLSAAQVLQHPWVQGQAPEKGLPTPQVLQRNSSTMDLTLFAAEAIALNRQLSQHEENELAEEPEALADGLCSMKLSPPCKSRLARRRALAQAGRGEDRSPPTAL

In the case of `Cc1cc(Nc2ncnn3cc(OCCN4CCC(F)(F)C4)c(C)c23)c(=O)n2c1C(=O)NC21CCCC1` [JDB153], the 50% inhibitory concentration (IC50) is 0.003 µM in assay [1] and 0.0266 µM in assay [2].
